Legend:
[1] = biological target: Beta-1 adrenergic receptor (Homo sapiens, UniProt P08588); test: DRUGMATRIX: Adrenergic beta1 radioligand binding (ligand: [125I] Cyanopindolol); assay type: cell membranes, CHO-K1, Membrane; details: cho-k1; Not Active = under 50% inhibition at 10 µM
[2] = DRUGMATRIX: beta-Lactamase enzyme inhibition (substrate: Nitrocefin); set-up: species or system Bacillus cereus; details: Not Active = under 50% inhibition at 10 µM
Calcitonin receptor = biological target: T1, Calcitonin receptor (Homo sapiens, UniProt P30988); assay type: cell membranes, Membrane; details: t47d; note: in other assays of this panel Not Active means under 50% inhibition at 10 µM
T1 sequence (P30988 whole entry): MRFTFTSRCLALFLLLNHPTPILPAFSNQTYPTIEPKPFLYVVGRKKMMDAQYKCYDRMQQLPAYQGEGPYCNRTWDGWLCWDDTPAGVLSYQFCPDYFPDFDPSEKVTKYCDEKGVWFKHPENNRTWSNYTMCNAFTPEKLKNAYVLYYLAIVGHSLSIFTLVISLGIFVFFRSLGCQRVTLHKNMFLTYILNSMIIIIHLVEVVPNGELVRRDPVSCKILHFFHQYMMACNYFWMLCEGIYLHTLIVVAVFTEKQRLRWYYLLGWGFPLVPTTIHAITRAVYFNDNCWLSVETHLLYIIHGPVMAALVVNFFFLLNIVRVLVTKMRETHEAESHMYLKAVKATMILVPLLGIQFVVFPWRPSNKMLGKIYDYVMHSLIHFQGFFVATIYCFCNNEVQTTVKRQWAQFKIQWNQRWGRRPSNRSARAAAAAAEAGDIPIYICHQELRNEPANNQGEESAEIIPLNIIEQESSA

[3] = DRUGMATRIX: Sigma2 radioligand binding (ligand: [3H] Ifenprodil); assay type: cell membranes, Rattus norvegicus, Wistar, Brain, Membrane; details: Not Active = under 50% inhibition at 10 µM
D(1A) dopamine receptor = D(1A) dopamine receptor (Homo sapiens, UniProt P21728); test: DRUGMATRIX: Dopamine D1 radioligand binding (ligand: [3H] SCH-23390); assay type: cell membranes, CHO, Membrane; details: cho; Not Active = under 50% inhibition at 10 µM
D(1A) dopamine receptor, sequence (P21728 whole entry): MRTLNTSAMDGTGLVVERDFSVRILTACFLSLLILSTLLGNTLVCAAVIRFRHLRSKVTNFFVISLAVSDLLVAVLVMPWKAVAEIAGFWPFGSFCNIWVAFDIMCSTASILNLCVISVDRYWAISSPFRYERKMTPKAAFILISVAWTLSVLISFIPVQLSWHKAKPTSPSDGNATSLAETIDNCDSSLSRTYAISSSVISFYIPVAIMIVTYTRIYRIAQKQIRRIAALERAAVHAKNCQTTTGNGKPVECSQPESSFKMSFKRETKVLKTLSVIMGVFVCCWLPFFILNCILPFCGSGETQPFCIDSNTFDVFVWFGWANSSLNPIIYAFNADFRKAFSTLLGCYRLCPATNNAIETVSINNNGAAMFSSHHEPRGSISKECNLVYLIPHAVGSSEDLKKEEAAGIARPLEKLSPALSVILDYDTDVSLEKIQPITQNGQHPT

[4] = DRUGMATRIX: Glutamate, Kainate radioligand binding (ligand: [3H] Kainic acid); assay type: cell membranes, Rattus norvegicus, Wistar, Brain, Membrane; details: Not Active = under 50% inhibition at 10 µM
Histamine H2 receptor = Histamine H2 receptor (Homo sapiens, UniProt P25021); assay type: cell membranes, CHO-K1, Membrane; details: cho-k1; note: in other assays of this panel Not Active means under 50% inhibition at 10 µM
Histamine H2 receptor, sequence (P25021 whole entry): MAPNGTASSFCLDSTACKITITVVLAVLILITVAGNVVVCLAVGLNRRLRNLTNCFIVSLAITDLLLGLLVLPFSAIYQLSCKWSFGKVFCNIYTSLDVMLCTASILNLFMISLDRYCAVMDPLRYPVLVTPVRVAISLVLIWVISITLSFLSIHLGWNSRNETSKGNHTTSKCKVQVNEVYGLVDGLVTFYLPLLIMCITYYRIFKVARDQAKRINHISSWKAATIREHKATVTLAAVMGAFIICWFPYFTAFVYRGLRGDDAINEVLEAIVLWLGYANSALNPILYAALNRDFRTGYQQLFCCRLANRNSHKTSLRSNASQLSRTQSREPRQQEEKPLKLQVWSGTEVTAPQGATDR

[5] = biological target: T2, Polyunsaturated fatty acid lipoxygenase ALOX15 (Oryctolagus cuniculus, UniProt P12530); test: biochemical; assay type: tissue-based, Reticulocytes; details: reticulocytes;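 note: inhibition of 15-lipoxygenase enzyme activity measured with linoleic acid as the substrate; in other assays of this panel Not Active means under 50% inhibition at 10 µM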
T2 sequence (P12530 whole entry): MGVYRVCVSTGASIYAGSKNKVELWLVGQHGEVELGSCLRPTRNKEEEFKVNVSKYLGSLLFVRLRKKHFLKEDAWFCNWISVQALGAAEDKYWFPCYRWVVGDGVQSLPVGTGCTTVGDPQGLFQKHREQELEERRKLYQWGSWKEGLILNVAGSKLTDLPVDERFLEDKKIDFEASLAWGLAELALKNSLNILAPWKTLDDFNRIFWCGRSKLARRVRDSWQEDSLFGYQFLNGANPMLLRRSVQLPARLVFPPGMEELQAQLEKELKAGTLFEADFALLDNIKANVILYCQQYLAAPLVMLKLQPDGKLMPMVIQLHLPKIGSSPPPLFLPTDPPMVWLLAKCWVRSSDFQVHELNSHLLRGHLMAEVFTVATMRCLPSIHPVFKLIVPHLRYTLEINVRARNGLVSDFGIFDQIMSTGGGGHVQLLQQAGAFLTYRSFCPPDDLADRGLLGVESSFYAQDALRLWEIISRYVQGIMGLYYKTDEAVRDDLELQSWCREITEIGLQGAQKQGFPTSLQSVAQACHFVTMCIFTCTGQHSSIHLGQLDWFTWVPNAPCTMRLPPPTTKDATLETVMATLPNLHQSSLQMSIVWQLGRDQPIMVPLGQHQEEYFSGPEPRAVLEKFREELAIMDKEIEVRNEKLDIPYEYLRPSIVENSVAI

[6] = biological target: T3, Muscarinic acetylcholine receptor M4 (Homo sapiens, UniProt P08173); assay type: cell membranes, CHO-K1, Membrane; details: cho-k1; note: in other assays of this panel Not Active means under 50% inhibition at 10 µM
T3 sequence (P08173 whole entry): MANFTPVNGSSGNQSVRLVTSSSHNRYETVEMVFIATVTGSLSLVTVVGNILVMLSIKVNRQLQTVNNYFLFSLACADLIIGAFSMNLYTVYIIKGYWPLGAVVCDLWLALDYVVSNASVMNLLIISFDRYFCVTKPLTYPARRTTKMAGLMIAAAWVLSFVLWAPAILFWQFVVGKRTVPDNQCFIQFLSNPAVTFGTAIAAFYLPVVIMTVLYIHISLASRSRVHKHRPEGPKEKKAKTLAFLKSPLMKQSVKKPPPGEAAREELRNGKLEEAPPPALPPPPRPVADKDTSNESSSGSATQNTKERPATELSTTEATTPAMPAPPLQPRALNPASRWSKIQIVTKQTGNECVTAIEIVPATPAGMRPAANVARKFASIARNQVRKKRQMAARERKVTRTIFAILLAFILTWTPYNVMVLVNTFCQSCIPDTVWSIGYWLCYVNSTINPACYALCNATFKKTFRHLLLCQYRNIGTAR

[7] = DRUGMATRIX: Phorbol Ester radioligand binding (ligand: [3H] PDBu); assay type: cell membranes, Mus musculus, ICR, Brain, Membrane; details: Not Active = under 50% inhibition at 10 µM
[8] = DRUGMATRIX: Platelet-Derived Growth Factor (PDGF) radioligand binding (ligand: [125I] PDGF); assay type: cell-based; details: nih3t3; Not Active = under 50% inhibition at 10 µM
[9] = biological target: Mitogen-activated protein kinase 14 (Homo sapiens, UniProt Q16539); set-up: species or system Escherichia coli
Mitogen-activated protein kinase 14, sequence (Q16539 whole entry): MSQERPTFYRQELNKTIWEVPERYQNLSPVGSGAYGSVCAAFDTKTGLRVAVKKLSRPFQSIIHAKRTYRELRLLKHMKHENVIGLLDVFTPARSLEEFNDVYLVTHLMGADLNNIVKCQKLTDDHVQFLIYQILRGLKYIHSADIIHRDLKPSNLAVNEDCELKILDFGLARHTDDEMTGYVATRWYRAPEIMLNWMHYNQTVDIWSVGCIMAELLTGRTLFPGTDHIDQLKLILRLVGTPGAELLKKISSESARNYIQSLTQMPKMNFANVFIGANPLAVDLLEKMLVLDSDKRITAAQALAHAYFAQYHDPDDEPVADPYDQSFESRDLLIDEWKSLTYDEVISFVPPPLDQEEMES

[10] = DRUGMATRIX: Purinergic P2X radioligand binding (ligand: [3H] alpha, beta-Methylene-ATP); assay type: cell membranes, Oryctolagus cuniculus, New Zealand albino, Urinary bladder, Membrane; details: Not Active = under 50% inhibition at 10 µM
Adenosine receptor A1 = biological target: T4, Adenosine receptor A1 (Homo sapiens, UniProt P30542); assay type: cell membranes, CHO, Membrane; details: cho
T4 sequence (P30542 whole entry): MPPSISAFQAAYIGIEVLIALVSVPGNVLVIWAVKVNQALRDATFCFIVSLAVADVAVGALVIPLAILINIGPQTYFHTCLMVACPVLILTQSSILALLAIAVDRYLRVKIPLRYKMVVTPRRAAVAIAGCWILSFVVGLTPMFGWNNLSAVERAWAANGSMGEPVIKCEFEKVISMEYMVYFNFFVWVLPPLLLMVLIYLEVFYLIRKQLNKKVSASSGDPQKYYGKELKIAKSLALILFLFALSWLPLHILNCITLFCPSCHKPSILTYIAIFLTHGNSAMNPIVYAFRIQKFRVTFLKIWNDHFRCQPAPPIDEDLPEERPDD

Beta-1 adrenergic receptor, sequence (P08588 whole entry): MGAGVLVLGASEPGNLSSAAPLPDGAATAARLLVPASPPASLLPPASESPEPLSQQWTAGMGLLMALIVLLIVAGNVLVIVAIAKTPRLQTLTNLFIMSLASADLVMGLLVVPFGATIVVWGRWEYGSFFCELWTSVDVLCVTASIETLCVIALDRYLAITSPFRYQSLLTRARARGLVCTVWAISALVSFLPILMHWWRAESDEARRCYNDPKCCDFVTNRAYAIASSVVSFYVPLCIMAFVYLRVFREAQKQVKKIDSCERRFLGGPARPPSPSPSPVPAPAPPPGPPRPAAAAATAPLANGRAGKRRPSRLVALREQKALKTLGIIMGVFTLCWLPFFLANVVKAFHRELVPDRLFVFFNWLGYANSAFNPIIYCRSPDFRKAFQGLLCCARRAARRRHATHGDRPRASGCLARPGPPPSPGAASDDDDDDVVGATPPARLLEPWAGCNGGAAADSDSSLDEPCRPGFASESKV

CN1[C@@H]2CC[C@H]1C[C@@H](OC(=O)c1c[nH]c3ccccc13)C2 [TROPISETRON]
Not Active: IC50 [1] | IC50 [2] | Ki [2] | IC50 (Calcitonin receptor) | IC50 [3] | Ki [3] | IC50 (D(1A) dopamine receptor) | IC50 [4] | Ki [4] | IC50 (Histamine H2 receptor) | IC50 [5] | IC50 [6] | IC50 [7] | Ki [7] | IC50 [8] | Ki [8] | IC50 [9] | IC50 [10] | Ki [10] | IC50 (Adenosine receptor A1)

COc1cc(C(=O)NC2CCCNC2)cc(OC)c1OC (stereo not given) [TROXIPIDE]
Not Active: IC50 [1] | IC50 [2] | Ki [2] | IC50 (Calcitonin receptor) | IC50 [3] | Ki [3] | IC50 (D(1A) dopamine receptor) | IC50 [4] | Ki [4] | IC50 (Histamine H2 receptor) | IC50 [5] | IC50 [6] | IC50 [7] | Ki [7] | IC50 [8] | Ki [8] | IC50 [9] | IC50 [10] | Ki [10] | IC50 (Adenosine receptor A1)

CC(C)[C@H](N)C(=O)OCCOCn1cnc2c(=O)nc(N)[nH]c21 [VALACYCLOVIR]
Not Active: IC50 [1] | IC50 [2] | Ki [2] | IC50 (Calcitonin receptor) | IC50 [3] | Ki [3] | IC50 (D(1A) dopamine receptor) | IC50 [4] | Ki [4] | IC50 (Histamine H2 receptor) | IC50 [5] | IC50 [6] | IC50 [7] | Ki [7] | IC50 [8] | Ki [8] | IC50 [9] | IC50 [10] | Ki [10] | IC50 (Adenosine receptor A1)

CN[C@H](CC(C)C)C(=O)N[C@H]1C(=O)N[C@@H](CC(N)=O)C(=O)N[C@H]2C(=O)N[C@H]3C(=O)N[C@H](C(=O)N[C@H](C(=O)O)c4cc(O)cc(O)c4-c4cc3ccc4O)[C@H](O)c3ccc(c(Cl)c3)Oc3cc2cc(c3O[C@@H]2O[C@H](CO)[C@@H](O)[C@H](O)[C@H]2O[C@H]2C[C@](C)(N)[C@H](O)[C@H](C)O2)Oc2ccc(cc2Cl)[C@H]1O [VANCOMYCIN]
Not Active: IC50 [1] | IC50 [2] | Ki [2] | IC50 (Calcitonin receptor) | IC50 [3] | Ki [3] | IC50 (D(1A) dopamine receptor) | IC50 [4] | Ki [4] | IC50 (Histamine H2 receptor) | IC50 [5] | IC50 [6] | IC50 [7] | Ki [7] | IC50 [8] | Ki [8] | IC50 [9] | IC50 [10] | Ki [10] | IC50 (Adenosine receptor A1)

COc1ccc(C(CN(C)C)C2(O)CCCCC2)cc1 (stereo not given) [VENLAFAXINE]
Not Active: IC50 [1] | IC50 [2] | Ki [2] | IC50 (Calcitonin receptor) | IC50 [3] | Ki [3] | IC50 (D(1A) dopamine receptor) | IC50 [4] | Ki [4] | IC50 (Histamine H2 receptor) | IC50 [5] | IC50 [6] | IC50 [7] | Ki [7] | IC50 [8] | Ki [8] | IC50 [9] | IC50 [10] | Ki [10] | IC50 (Adenosine receptor A1)

From ChEMBL document CHEMBL1909046, “DrugMatrix in vitro pharmacology data”
